Data from patent publication US4029801A, “Pharmaceutical compositions and methods of treating hypertension” (priority 1970, dated 1977).

Key:
histamine = molecular target: T1, histamine (Cavia porcellus, UniProt P31389); experiment: Antihistamine activity by the method of Alps et al.; conditions: Table 4; read-out: Antihistamine pA2 (converted)
T1 construct: from tissue

α-adrenoceptor = experiment: α-Adrenoceptor antagonism on the guinea pig aortic strip
Source text: Carried out on the guinea pig aortic strip [Furchgott and Bhadrakom (1953) J. Pharmac. exp. Ther. 108, 129-143] by the method of Alps et al [Br. J. Pharmac. 1972 44, 52-62].

[1] = system: blood pressure and heart rate; experiment: Method 1 (rat): hypotensive activity in anaesthetised rats, i.v.; conditions: Rattus norvegicus, iv, 0.25 h, read-out: Hypotensive Activity
Protocol: Rats were anaesthetised with pentobarbitone sodium (60 mg/kg) and the jugular vein, trachea and carotid artery were cannulated. […] A decrease in heart rate of more than 30% from control values was considered to be significant bradycardia.

blood pressure = experiment: Tests for action on the cardiovascular system: hypotensive activity (activity in method 1, rats or cats, or method 2), reported in words; assay type: in vivo, rat, cat; conditions: standard test procedure, result in words
Procedure, shortened: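 Method 1: pentobarbitone-anaesthetised cats, test compounds i.v. at 0.1-25.6 mg/kg, aortic blood pressure, heart rate and left ventricular pressure recorded. Method 2: renal hypertensive rats (figure-8 ligature plus contralateral nephrectomy, 6 weeks), dosed IP or orally; systolic pressure by tail plethysmography before and 2 and 24 h post-dose versus controls.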

mouse = experiment: Acute toxicity (LD50) in the mouse; conditions: result in words
[2] = Acute toxicity (LD50) in the mouse; conditions: in vivo

T1 sequence (P31389 whole entry): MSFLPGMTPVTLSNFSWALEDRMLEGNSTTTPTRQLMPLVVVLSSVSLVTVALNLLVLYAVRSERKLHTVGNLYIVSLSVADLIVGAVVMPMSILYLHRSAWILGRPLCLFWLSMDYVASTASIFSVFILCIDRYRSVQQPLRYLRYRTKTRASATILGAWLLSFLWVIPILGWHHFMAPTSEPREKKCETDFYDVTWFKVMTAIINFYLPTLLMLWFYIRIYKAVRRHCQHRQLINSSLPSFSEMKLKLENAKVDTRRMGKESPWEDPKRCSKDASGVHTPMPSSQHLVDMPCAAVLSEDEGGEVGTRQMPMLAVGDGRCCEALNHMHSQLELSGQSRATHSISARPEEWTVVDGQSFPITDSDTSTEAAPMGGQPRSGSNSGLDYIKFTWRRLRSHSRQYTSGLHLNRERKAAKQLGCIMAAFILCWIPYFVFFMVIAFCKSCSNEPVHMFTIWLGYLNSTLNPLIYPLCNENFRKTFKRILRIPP

## O=C(CCCN1CCC(NC(=O)c2ccccc2)CC1)c1ccc(O)cc1 [Example 63, 4-Benzamido-1-[4-(4-hydroxyphenyl)-4-oxobutyl]piperidine]
histamine
  Kb: 1.26 nM
α-adrenoceptor; Table 4
  α-blockade pA2: 7.0
α-adrenoceptor; result in words
  α-adrenoceptor antagonism: α-adrenoceptor antagonism
[1]
  minimal effective dose: 25.6 mg/kg
Blood pressure
  hypotensive activity: good hypotensive activity
mouse
  toxicity: remarkably low toxicity
[2]; ip
  LD50: 1630 mg/kg
  LD50 at 24 h: > 4000 mg/kg
[2]; po
  LD50: > 4000 mg/kg
